# Assay results published in patent US20100203123A1, “METHODS FOR IMPROVING COGNITIVE FUNCTION AND DECREASING HEART RATE” (MARTEK BIOSCIENCES CORPORATION, priority 2009, published 2010).
# “Also recorded” adds a separate entry of the source.
# Key:
# Format in all cases: in vivo, human
# [1] = system: healthy elderly subjects with a mild memory complaint; test: CANTAB Pattern Recognition Memory (PRM) test; settings: about 900 mg/d, 24 weeks
# Procedure: (§1) The effects of DHA (about 900 mg/day) versus placebo was tested to determine whether cognitive measures of memory, attention, and executive function were improved, utilizing the Cambridge Neuropsychological Test Automated Battery (CANTAB) cognitive battery, in healthy elderly subjects with a mild memory complaint. One objective of the study was to determine the effect of DHA administration versus placebo on improving cognitive functions (i.e., working memory, memory retention, attention, processing speed, and executive function) in healthy elderly with a subjective memory complaint. […]
# (§2) The secondary efficacy endpoints included: • CANTAB tests of executive function and planning: Spatial Working Memory […] and Stockings of Cambridge (SOC) • CANTAB Verbal Recognition Memory test (VRM) • CANTAB Pattern Recognition test (PRM) • Visual acuity (measured by Snellen Eye chart; corrected vision) • Memory Functioning Questionnaire: Frequency of Forgetting-10 (Self-rating scale) • Activities of Daily Living (ADCS-ADL PI) scale (Self-rating) • Clinical measures of cognitive function and computerized assessments were administered by (CANTAB) certified examiners at each site blinded to the subject's treatment. • Description of CANTAB Battery of tests […]
# [2] = system: healthy elderly subjects with a mild memory complaint; test: CANTAB Spatial Working Memory (SWM) test; settings: about 900 mg/d, 24 weeks
# Procedure: as §1, §2
# [3] = Plasma phospholipid fatty acid levels
# Procedure: The DHA group was provided 800 mg soft-gelatin capsules, each containing about 300 mg DHA as a triglyceride from algal oil (DHASCO®-S oil, 40% DHA). In addition to 40% DHA, DHASCO®-S oil was formulated to contain 40-60% saturated, mono- and polyunsaturated fatty acids, 400 ppm ascorbyl palmitate, 2000 ppm mixed tocopherols, 2000 ppm rosemary extract, 3% orange-flavoring, and 1% natural masking agent. Subjects were instructed to take three 800 mg capsules/day, i.e., about 900 mg DHA/day.
# Blood samples of the subjects were collected at baseline and at the week 24 or “end of study” visit to determine phospholipid levels. Samples were collected into 10 ml vacutainer EDTA tubes, centrifuged at 3000 rpm and plasma was stored at −80° C. until analyzed. Plasma phospholipid fatty acids were analyzed as described previously. See, e.g., Arterburn, L. M., et al., Lipids 42:1011-1024 (2007). The fatty acid profiles were expressed as a percent of the total […] of fatty acid (weight percent).
# [4] = system: healthy elderly subjects with a mild memory complaint; test: ADL (ADCS-ADL PI) and self-assessment of memory (Frequency of Forgetting-10); settings: 6 month study
# Source text: The secondary efficacy endpoints included: • CANTAB tests of executive function and planning: Spatial Working Memory […] and Stockings of Cambridge (SOC) • CANTAB Verbal Recognition Memory test (VRM) • CANTAB Pattern Recognition test (PRM) • Visual acuity (measured by Snellen Eye chart; corrected vision) • Memory Functioning Questionnaire: Frequency of Forgetting-10 (Self-rating scale) • Activities of Daily Living (ADCS-ADL PI) scale (Self-rating) • Clinical measures of cognitive function and computerized assessments were administered by (CANTAB) certified examiners at each site blinded to the subject's treatment. • Description of CANTAB Battery of tests
# Other secondary measures included self-assessment tests of memory (Frequency of Forgetting-10 scale) (Zelinski, E. M. et al., Aging and Mental Health […]), Alzheimer's Disease Cooperative Study-Activities of Daily Living Prevention Instrument (ADCS-ADL PI scale) (Galasko, D., Alzheimer Dis. Assoc. Disord. 20:S152-69 (200)), Mini-Mental State Examination (MMSE) (Folstein et al., Pyschiatr. Res. 12:189-198 (1975) and the Geriatric Depression Scale (Yesavage, J., et al., J Psychiatr. Res. […]).
compound,measurement,setting,value
"CC/C=C\C/C=C\C/C=C\C/C=C\C/C=C\C/C=C\CCC(=O)O [DHA, (all-Z)-4,7,10,13,16,19-docosahexaenoic acid]","CANTAB Pattern Recognition test responses, DHA versus placebo",[1],not significantly different
same,"Spatial Working Memory (SWM) test responses, DHA versus placebo",[2],not significantly different; also recorded: not found
same,"plasma phospholipid DHA change, diff. score versus placebo","[3]; 24 weeks, p<0.001",3.15±0.16
same,"plasma phospholipid DPAn-6, mean change","[3]; 24 weeks, placebo −0.004, p<0.001",0.37 weight %
same,"plasma phospholipid EPA, mean change","[3]; 24 weeks, placebo −0.06, p<0.001",0.16 weight %
same,"plasma phospholipid arachidonic acid (ARA), mean change from baseline","[3]; 24 weeks, placebo −0.12, p<0.001",−1.37 weight %
same,"plasma phospholipid ARA levels, decrease","[3]; about 900 mg/day, six months",1.4 weight %
same,"plasma phospholipid DHA, increase from baseline","[3]; week 24, about 900 mg/day, placebo −0.08",3.2 weight %
same,plasma phospholipid DHA level after treatment,"[3]; week 24, baseline 3.2 weight %, p<0.001",6.4 weight %
same,ADL assessment,[4],unaffected by DHA supplementation
same,self-perceptive memory assessment,[4],unaffected by DHA supplementation
